According to PMC10502144, “Anti-methicillin-resistant Staphylococcus aureus activity and safety evaluation of 14-O-[(5-ethoxycarbonyl-4,6-dimethylpyrimidine-2-yl) thioacetyl] mutilin (EDT)” (Scientific Reports, 2023):
≈ marks a conversion by molar mass, not a printed value. Like-named read-outs stand apart in the source and are kept apart here.

System: clinical isolates of MRSA
Assay: MIC by broth serial-dilution against 48 clinical isolates of MRSA
Type: cell-based, methicillin-resistant Staphylococcus aureus
Conditions: Staphylococcus aureus, MRSA
Experimental: The tests against 48 clinical isolates of MRSA from dairy farms in 4 different provinces in China[37] were conducted in triplicate, using broth serial-dilution method in 96-well plates according to CLSI reference methods. Briefly, EDT and tiamulin fumarate used as referent drug were dissolved in 25% dimethyl sulfoxide (DMSO) to a solution with concentration of 64 μg/mL. The obtained 100 μL solutions were then added into the first column of the 96-well plate, and diluted to the tenth well with serial twofold dilutions. The last two wells were used as positive controls. The 100 μL bacterial suspension was diluted in MHB to give a final organism density of to 10^5 ~ 10^6 colony-forming unit (CFU) per 1 mL and added to all the wells, followed by incubating at 37 °C for 24 h. […] The results were expressed as an average of the MICs obtained from three independent experiments.

Which MIC (read-out: MIC values against 48 strains, range over 48 clinical isolates of MRSA) does the source give for C=CC1(C)CC(OC(=O)CSc2nc(C)c(C(=O)OCC)c(C)n2)C2(C)C(C)CCC3(CCC(=O)C32)C(C)C1O (centres unmarked) [EDT, 14-O-[(5-ethoxycarbonyl-4,6-dimethylpyrimidine-2-yl)thioacetyl] mutilin] here?
The MIC was 0.0313 to 0.0625 µg/mL (≈ 0.0546 to 0.109 µM).

And the inhibition at 0.0625 µg/mL (read-out: strains inhibited)?
The inhibition at 0.0625 µg/mL was 97.9%.

What about the MIC (strain CX1) of the same molecule?
The MIC was 0.0313 µg/mL (≈ 0.0546 µM).

What about the MIC (strain CX2) of the same molecule?
Its MIC is 0.0313 µg/mL (≈ 0.0546 µM).

And the MIC (strain CX5)?
Its MIC is 0.0313 µg/mL (≈ 0.0546 µM).

And the MIC (strain CX6)?
The MIC was 0.0313 µg/mL (≈ 0.0546 µM).

What about the MIC (strain CX7) of the same molecule?
Its MIC is 0.0625 µg/mL (≈ 0.109 µM).

What about the MIC (strain CX9) of the same molecule?
Its MIC is 0.125 µg/mL (≈ 0.218 µM).

What about the MIC (strain HG1) of the same molecule?
The MIC was 0.0313 µg/mL (≈ 0.0546 µM).

What about the MIC (strain HG2) of the same molecule?
Its MIC is 0.0313 µg/mL (≈ 0.0546 µM).

And the MIC (strain HG3)?
Its MIC is 0.0313 µg/mL (≈ 0.0546 µM).

What about the MIC (strain HG4) of the same molecule?
Its MIC is 0.0313 µg/mL (≈ 0.0546 µM).

What about the MIC (strain HG5) of the same molecule?
Its MIC is 0.0313 µg/mL (≈ 0.0546 µM).

What about the MIC (strain HG6) of the same molecule?
Its MIC is 0.0313 µg/mL (≈ 0.0546 µM).

What about the MIC (strain HG7) of the same molecule?
Its MIC is 0.0625 µg/mL (≈ 0.109 µM).

And the MIC (strain QY4)?
The MIC was 0.0313 µg/mL (≈ 0.0546 µM).

What about the MIC (strain QY5) of the same molecule?
Its MIC is 0.0313 µg/mL (≈ 0.0546 µM).

And the MIC (strain QY6)?
The MIC was 0.0625 µg/mL (≈ 0.109 µM).

What about the MIC (strain QY8) of the same molecule?
The MIC was 0.0313 µg/mL (≈ 0.0546 µM).

And the MIC (strain QY10)?
Its MIC is 0.0625 µg/mL (≈ 0.109 µM).

What about the MIC (strain SH3) of the same molecule?
The MIC was 0.0313 µg/mL (≈ 0.0546 µM).

What about the MIC (strain SH4) of the same molecule?
The MIC was 0.0313 µg/mL (≈ 0.0546 µM).

And the MIC (strain SH6)?
Its MIC is 0.0313 µg/mL (≈ 0.0546 µM).

And the MIC (strain SH7)?
Its MIC is 0.0625 µg/mL (≈ 0.109 µM).

What about the MIC (strain SH8) of the same molecule?
Its MIC is 0.0313 µg/mL (≈ 0.0546 µM).

What about the MIC (strain SH9) of the same molecule?
The MIC was 0.0313 µg/mL (≈ 0.0546 µM).

What about the MIC (strain SH10) of the same molecule?
Its MIC is 0.0313 µg/mL (≈ 0.0546 µM).

And the MIC (strain SH11)?
Its MIC is 0.0313 µg/mL (≈ 0.0546 µM).

And the MIC (strain SH12)?
The MIC was 0.0313 µg/mL (≈ 0.0546 µM).

What about the MIC (strain SH13) of the same molecule?
The MIC was 0.0313 µg/mL (≈ 0.0546 µM).

And the MIC (strain SH14)?
Its MIC is 0.0313 µg/mL (≈ 0.0546 µM).

What about the MIC (strain SH15) of the same molecule?
The MIC was 0.0313 µg/mL (≈ 0.0546 µM).

What about the MIC (strain SX5) of the same molecule?
Its MIC is 0.0313 µg/mL (≈ 0.0546 µM).

What about the MIC (strain SX6) of the same molecule?
The MIC was 0.0313 µg/mL (≈ 0.0546 µM).

And the MIC (strain SX7)?
The MIC was 0.0313 µg/mL (≈ 0.0546 µM).

What about the MIC (strain SX8) of the same molecule?
The MIC was 0.0313 µg/mL (≈ 0.0546 µM).

What about the MIC (strain SX9) of the same molecule?
Its MIC is 0.0313 µg/mL (≈ 0.0546 µM).

And the MIC (strain SX10)?
Its MIC is 0.0313 µg/mL (≈ 0.0546 µM).

And the MIC (strain SX16)?
Its MIC is 0.0625 µg/mL (≈ 0.109 µM).

And the MIC (strain SX17)?
Its MIC is 0.0313 µg/mL (≈ 0.0546 µM).

And the MIC (strain SX18)?
The MIC was 0.0313 µg/mL (≈ 0.0546 µM).

What about the MIC (strain ZY1) of the same molecule?
Its MIC is 0.0313 µg/mL (≈ 0.0546 µM).

What about the MIC (strain ZY2) of the same molecule?
The MIC was 0.0313 µg/mL (≈ 0.0546 µM).

And the MIC (strain ZY3)?
The MIC was 0.0313 µg/mL (≈ 0.0546 µM).

What about the MIC (strain ZY4) of the same molecule?
Its MIC is 0.0313 µg/mL (≈ 0.0546 µM).

And the MIC (strain ZY5)?
The MIC was 0.0313 µg/mL (≈ 0.0546 µM).

What about the MIC (strain ZY6) of the same molecule?
The MIC was 0.0313 µg/mL (≈ 0.0546 µM).

And the MIC (strain ZY7)?
The MIC was 0.0313 µg/mL (≈ 0.0546 µM).

And the MIC (strain ZY8)?
The MIC was 0.0625 µg/mL (≈ 0.109 µM).

What about the MIC (strain ZY9) of the same molecule?
Its MIC is 0.0313 µg/mL (≈ 0.0546 µM).
